“Also recorded” adds a separate entry of the source.
What was measured:
[1] = tested on: lean mice; assay: Acute single-dose FSG67 treatment of lean mice (body weight, food intake); assay type: in vivo; conditions: single 20 mg/kg ip
Excerpt: DIO and lean mouse models. All animal experimentation was done in accordance with guidelines on animal care and use as established by the Johns Hopkins University School of Medicine IACUC. DIO C57BL6J male mice were obtained from Jackson Laboratory (Bar Harbor, ME) and fed a synthetic diet comprised of 60% calories from fat, 20% from carbohydrate, and 20% from protein (5.2 kcal/g) post-weaning through the experimental procedures (D12492i, Research Diets, Inc., New Brunswick, N.J.). For lean animal studies, twelve-week old C57BL6J male mice (Jackson Laboratory, Bar Harbor, Me.) were fed rodent chow comprised of 13% calories from fat, 58% from carbohydrate, and 29% from protein (4.1 kcal/g) (Prolab RMH 2500, PMI Nutrition International Inc., Brentwood, Mo.). Mice were maintained in 12 hr light-dark cycle at 25° C. for 1 week for acclimatization prior to treatment. In all studies, FSG67 (FASgen, Inc., Baltimore, Md.) was dissolved in RPMI 1640 (Invitrogen, Carlsbad, Calif.).
For acute studies, 6 DIO or lean mice were treated with a single dose of FSG67 (20 mg/kg, i.p.) approximately 3 hrs past lights-on. Animal weights and food consumption were measured 18 h after treatment. Following euthanization, the hypothalmuses were harvested to measure orexigenic and anorexigenic neuropeptide gene expression. […] Body weight and food intake were measured daily. In one study, a cohort of mice was pair-fed with amounts consumed by the FSG67-treated animals and mice were monitored with indirect calorimetry (Oxymax Equal Flow System®, Columbus Instruments, Columbus, Ohio). Measurements of VO2 (ml/kg/hr) and VCO2 (ml/kg/hr) were performed and recorded every 15 min. The respiratory exchange ratio (RER) was calculated by Oxymax software, version 5.9, and is defined as ratio of VCO2 to VO2 33. […] Tissues were harvested immediately for RNA extraction; serum was collected and analyzed for glucose, cholesterol, and triglyceride measurements (Bioanalytics, Gaithersburg, Md.). […]

[2] = tested on: DIO mice; assay: 10 d FSG67 treatment of DIO mice with Q-NMR assessment of adiposity; assay type: in vivo, mouse
Protocol: Q-NMR assessment of adiposity. Following 10 days of FSG67 treatment or vehicle by ip administration, the DIO mice were euthanized and carcasses were stored at −80° C. Carcasses were thawed for Q-NMR analysis. Measurement of fat, lean, and water mass was performed using an EchoMRI-100™ (Echo Medical Systems, Houston, Tex.) in the Molecular and Comparative Pathobiology Phenotyping Core.
Since FSG67 increased fatty acid oxidation and reduced food intake in DIO mice, we next used Q-NMR analysis to measure lean, fat and water mass in FSG67 treated and control mice to determine the composition of the tissue loss with FSG67 treatment. In an additional chronic treatment experiment, 10 DIO mice were treated with FSG67 (5 mg/kg/d, ip) and 10 received vehicle for 10 days. The FSG67 treated mice lost 6.1±0.9 g (13.1±1.9%) while vehicle controls lost 1.1±0.4 g (2.3±0.8%) (p<0.0001. 2-way ANOVA). […] At the conclusion of the experiment, the FSG67 treated mice weighed 4.4 g less than the vehicle controls, which could be accounted for by the 4.0 g difference in fat mass. Thus, GPAT inhibition selectively reduces adiposity in DIO mice.

[3] = tested on: lean mice; assay: Intracerebroventricular FSG67 treatment of lean mice; assay type: in vivo, mouse; conditions: for weight lost: within 24 h
Protocol: Chronic lateral cerebroventricle cannulas. For experiments requiring intracerebroventricular (i.c.v.) administration of compounds, mice were outfitted unilaterally with chronic indwelling cannulas aimed at the lateral cerebroventricle. After mice recovered from surgeries for one week, cannula placements were assessed by measuring food intake in response to i.c.v. neuropeptide Y (NPY, American Peptide Co., CA). Mice were given NPY (0.25 ηmol/2 μl injection) or sterile 0.9% saline vehicle via the i.c.v. cannula, and allowed 1-h access to grain-based pellets during the light phase. Mice that ate at least 0.5 g of food after NPY were used in the experiments. Eleven mice were given a 2 μL injection of RPMI-1640 without glucose (Cambrex, Md.) for vehicle control. Three days later, six mice received a 100 nmole dose of FSG67 in the vehicle while 5 mice received 320 nmoles of compound.
We administered FSG67 icy to determine whether GPAT inhibition acts centrally to reduce food intake. Lean mice were treated with FSG67 icy at doses 100 and 320 nmoles (approximately […] less than the 5 mg/kg single day systemic dose). Within 24 h, mice treated with 100 nmoles lost 0.75±0.4 g (p=0.016) while the 320 nmole group lost 1.8±0.3 g (p=0.0003); vehicle controls gained 0.43±0.1 g and 0.33±0.1 g respectively (FIG. 15a). The animal weight was regained within 48 h without a significant rebound (data not shown). […] Within 48 h, the animals began eating normally with slight hyperphagia in the 320 nmole group on days 3 and 4 (data not shown).

[4] = tested on: DIO mice; assay: Serum chemistry and Oil Red O liver histology of 16 d treated DIO mice; assay type: in vivo, mouse
Protocol: For acute studies, 6 DIO or lean mice were treated with a single dose of FSG67 (20 mg/kg, i.p.) approximately 3 hrs past lights-on. Animal weights and food consumption were measured 18 h after treatment. Following euthanization, the hypothalmuses were harvested to measure orexigenic and anorexigenic neuropeptide gene expression. In the chronic studies, DIO mice, 4-10 animals per group, were treated daily with FSG67 (5 mg/kg, i.p.) or with RMPI vehicle for the days indicated. Body weight and food intake were measured daily. In one study, a cohort of mice was pair-fed with amounts consumed by the FSG67-treated animals and mice were monitored with indirect calorimetry (Oxymax Equal Flow System®, Columbus Instruments, Columbus, Ohio). Measurements of VO2 (ml/kg/hr) and VCO2 (ml/kg/hr) were performed and recorded every 15 min. The respiratory exchange ratio (RER) was calculated by Oxymax software, version 5.9, and is defined as ratio of VCO2 to VO2 33. After completion of the treatment course, animals were euthanized by CO2 inhalation 4 hrs following the final dose of FSG67. Tissues were harvested immediately for RNA extraction; serum was collected and analyzed for glucose, cholesterol, and triglyceride measurements (Bioanalytics, Gaithersburg, Md.). Fresh liver tissue was snap frozen in liquid N2, sectioned, and stained with hematoxylin and Oil Red O to visualize triglyceride droplets.
Consistent with the systemic reduction in adiposity, GPAT inhibition reversed hepatic steatosis in DIO mice. […] Cholesterol levels remained unchanged (FIG. 14d). The resolution of the hepatic steatosis in FSG67 treated mice may have contributed to the normalization of blood glucose levels.

CCCCCCCCCS(=O)(=O)Nc1ccccc1C(=O)O [Compound 15g, 2-(Nonylsulfonamido)benzoic acid]
food consumption ([1]; lean mice): 1.4 ± 0.2 g | food consumption, % of vehicle control ([1]; lean mice): 33% | overt toxicity ([1]; lean or DIO mice): No overt toxicity | reduction in fat mass compared to vehicle controls (Q-NMR) ([2]; 5 mg/kg ip daily, 10 d): 4.0 g | lean and water mass (Q-NMR) ([2]; 5 mg/kg ip daily, 10 d, listed as FSG67, 5 mg/kg): no significant change; also recorded: unaffected | final weight difference to vehicle controls ([2]; conclusion of 10 d experiment): 4.4 g | weight lost ([3]; 100 nmoles icv): 0.75 ± 0.4 g | chow intake ([3]; 320 nmole icv): 2.5 ± 0.3 g | weight lost ([3]; 320 nmole icv): 1.8 ± 0.3 g | mouse weight one day following treatment ([3]; 100 and 320 nmole icv): significantly reduced | significant reduction in food intake ([3]; 100 vs 320 nmole icv, listed as FSG67): only occurred in the 320 nmole treatment group | time to regain animal weight ([3]; icv, without significant rebound): ≤ 48 h | liver histology: inflammation, necrosis, hepatocellular injury [4]: No inflammation, necrosis, or hepatocellular injury | reduction in serum triglyceride levels vs pair-fed or vehicle [4]: not statistically significant | serum glucose ([4]; 5 mg/kg ip daily): 153.3 ± 10.5 mg/dL | serum triglyceride ([4]; 5 mg/kg ip daily): 111.3 ± 10.9 mg/dL | hepatic steatosis (Oil red O liver sections) ([4]; listed as FSG67): nearly complete resolution; also recorded: almost complete amelioration of fat accumulation | serum cholesterol levels ([4]; listed as FSG67): unchanged; also recorded: unaffected

Source: patent US20120083471A1, “Novel Compounds, Pharmaceutical Compositions Containing Same, Methods of Use for Same, and Methods for Preparing Same” (priority 2008, published 2012)
